The text below walks through data of patent publication US20110086759A1, “CHEMICAL COMPOUNDS” (SYNGENTA CROP PROTECTION, INC., priority 2007, published 2011).

Molecules are shown by their SMILES.

Holding throughout (assay type): in vivo
Test [1] concerns Amaranthus retoflexus (AMARE). Put plainly: Post-emergence biological efficacy, glasshouse pot test. Particulars: Amaranthus retroflexus, 312 h; post-emergence, 1,000 g/ha, evaluated after 13 days (100=total damage; 0=no damage); read-out: Percentage damage caused to weed species, AMARE. The method, boiled down:
(§1)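 Pot-grown weeds were sprayed 8 days after sowing with test compound in acetone/water (50:50) with 0.5% Tween 20 at 1000 or 250 g/ha. Glasshouse at 24/16° C day/night, 14 h light, 65% humidity. Damage scored 0-100 (100 = total damage) after 13 days.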

The subject of test [2] is Echinochloa crus-galli (ECHCG). The description is as above. The conditions noted are these: 312 h, post-emergence, 1,000 g/ha, evaluated after 13 days (100=total damage; 0=no damage), read-out: Percentage damage caused to weed species, ECHCG. The method, boiled down: as §1
The test system of test [3] is Alopecurus myosuroides (ALOMY). Described as above. Particulars: 312 h, post-emergence, 1,000 g/ha, evaluated after 13 days (100=total damage; 0=no damage), read-out: Percentage damage caused to weed species, ALOMY. The method, boiled down:
as §1

The subject of test [4] is Setaria faberi (SETFA). Described as above. Particulars: 312 h, post-emergence, 1,000 g/ha, evaluated after 13 days (100=total damage; 0=no damage), read-out: Percentage damage caused to weed species, SETFA. Put shortly:
as §1

The test system of test [5] is Solanum nigrum (SOLNI). The test is described as above. Particulars: 312 h, post-emergence, 1,000 g/ha, evaluated after 13 days (100=total damage; 0=no damage), read-out: Percentage damage caused to weed species, SOLNI. The method, boiled down:
as §1

Test [6] concerns Ipomea hederaceae (IPOHE). The test is described as above. Particulars: Ipomoea hederacea, 312 h; post-emergence, 1,000 g/ha, evaluated after 13 days (100=total damage; 0=no damage); read-out: Percentage damage caused to weed species, IPOHE. Put shortly:
as §1

The test system of test [7] is Amaranthus retoflexus (AMARE). Put plainly: Pre-emergence biological efficacy, glasshouse pot test. The conditions noted are these: Amaranthus retroflexus, 312 h; pre-emergence, 1,000 g/ha, evaluated after 13 days (100=total damage; 0=no damage); read-out: Percentage damage AMARE. Put shortly:
(§2)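 Visual phytotoxicity (0 no damage, 100 total damage) assessed 13 d after treatment. Soil-sown pots sprayed one day post-sowing; dose 1000 or 250 g/ha; formulation in acetone/water 50:50, 0.5% Tween 20.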

For test [8], the system named is Echinochloa crus-galli (ECHCG). Described as above. The conditions noted are these: 312 h, pre-emergence, 1,000 g/ha, evaluated after 13 days (100=total damage; 0=no damage), read-out: Percentage damage ECHCG. The method, boiled down: as §2
In test [9] the test system is Alopecurus myosuroides (ALOMY). Described as above. Particulars: 312 h, pre-emergence, 1,000 g/ha, evaluated after 13 days (100=total damage; 0=no damage), read-out: Percentage damage ALOMY. Put shortly: as §2
Test [10] relates to Setaria faberi (SETFA). The test is described as above. Particulars: 312 h, pre-emergence, 1,000 g/ha, evaluated after 13 days (100=total damage; 0=no damage), read-out: Percentage damage SETFA. Put shortly:
as §2

In test [11] the test system is Solanum nigrum (SOLNI). The test is described as above. The conditions noted are these: 312 h, pre-emergence, 1,000 g/ha, evaluated after 13 days (100=total damage; 0=no damage), read-out: Percentage damage SOLNI. The method, boiled down: as §2
Test [12] relates to Ipomea hederaceae (IPOHE). The test is described as above. The conditions noted are these: Ipomoea hederacea, 312 h; pre-emergence, 1,000 g/ha, evaluated after 13 days (100=total damage; 0=no damage); read-out: Percentage damage IPOHE. Put shortly:
as §2

Take `COC(=O)c1nc(C2CC2)nc(NC(C)CC2CCCC2)c1Cl` (stereo not drawn) [Compound 4-230, 5-Chloro-4-(2-cyclopentyl-1-methyl-ethylamino)-2-cyclopropyl-6-methoxycarbonyl-pyrimidine]: the pest or weed control at 1000 g/ha in [1] came to 40%; in test [2] it was 0%; in test [3], 0%; in the test on Setaria faberi (SETFA) [4], 0%; in the test on Solanum nigrum (SOLNI) [5] it was 40%; in [6], 40%. For the same molecule, the pest or weed control at 1000 g/ha turned out to be 10% in [7]; 0% in test [8]; 0% in test [9]; 0% in the test on Setaria faberi (SETFA) [10]; 0% in the test on Solanum nigrum (SOLNI) [11]; 40% in [12].

`COC(=O)c1nc(C2CC2)nc(NC(C)Cc2c[nH]c3ccccc23)c1Cl` (stereo not drawn) [Compound 4-231, 5-Chloro-2-cyclopropyl-4-[2-(indol-3-yl)-1-methyl-ethylamino]-6-methoxy-carbonylpyrimidine]: the pest or weed control at 1000 g/ha in test [1] was determined as 90%; in test [2], 10%; in [3], 10%; in the test on Setaria faberi (SETFA) [4], 30%; in the test with Solanum nigrum (SOLNI) [5], 70%; in test [6] it was 60%. For the same molecule, the pest or weed control at 1000 g/ha is 30% in test [7]; 0% in test [8]; 0% in test [9]; 0% in the test with Setaria faberi (SETFA) [10]; 10% with Solanum nigrum (SOLNI) [11]; 70% in [12].

In the case of `COC(=O)c1nc(C2CC2)nc(NCC(C)c2ccccc2)c1Cl` (stereo not drawn) [Compound 4-232, 5-Chloro-2-cyclopropyl-6-methoxycarbonyl-4-[2-(phenyl)propyl-amino]-pyrimidine], the pest or weed control at 1000 g/ha in test [1] came to 100%; in test [2], 30%; in [3], 20%; in the test with Setaria faberi (SETFA) [4], 50%; with Solanum nigrum (SOLNI) [5], 70%; in test [6], 100%. For the same molecule, the pest or weed control at 1000 g/ha worked out at 90% in test [7]; 30% in [8]; 10% in [9]; 30% in the test with Setaria faberi (SETFA) [10]; 80% in the test with Solanum nigrum (SOLNI) [11]; 50% in [12].

With `COC(=O)c1nc(C2CC2)nc(NCC(C)c2ccc(Cl)cc2)c1Cl` (stereo not drawn) [Compound 4-233, 5-Chloro-4-[2-(4-chlorophenyl)propyl-amino]-2-cyclopropyl-6-methoxycarbonyl-pyrimidine], the pest or weed control at 1000 g/ha was found to be 100% in test [1]; 20% in test [2]; 10% in [3]; 50% with Setaria faberi (SETFA) [4]; 80% in the test on Solanum nigrum (SOLNI) [5]; 60% in test [6]. For the same molecule, the pest or weed control at 1000 g/ha was 40% in test [7]; 0% in test [8]; 0% in test [9]; 0% with Setaria faberi (SETFA) [10]; 20% in the test on Solanum nigrum (SOLNI) [11]; 10% in test [12].

`COC(=O)c1nc(C2CC2)nc(NCC(F)c2ccccc2Br)c1Cl` (stereo not drawn) [Compound 4-234, 4-[2-(2-Bromophenyl)-2-fluoro-ethylamino]-5-chloro-2-cyclopropyl-6-methoxycarbonyl-pyrimidine]: the pest or weed control at 1000 g/ha was determined as 90% in test [1]; 20% in test [2]; 0% in [3]; 30% with Setaria faberi (SETFA) [4]; 70% with Solanum nigrum (SOLNI) [5]; 60% in [6]. The pest or weed control at 1000 g/ha in test [7] is 10%; in [8], 0%; in [9], 0%; in the test with Setaria faberi (SETFA) [10] it was 0%; in the test with Solanum nigrum (SOLNI) [11], 0%; in [12], 0%.

Turning to `COC(=O)c1nc(C2CC2)nc(NCC(F)c2ccc(Br)cc2)c1Cl` (stereo not drawn) [Compound 4-236, 4-[2-(4-Bromophenyl)-2-fluoro-ethylamino]-5-chloro-2-cyclopropyl-6-methoxycarbonyl-pyrimidine], the pest or weed control at 1000 g/ha was 100% in test [1]; 0% in test [2]; 0% in [3]; 40% in the test on Setaria faberi (SETFA) [4]; 70% in the test on Solanum nigrum (SOLNI) [5]; 60% in test [6]. Besides, the pest or weed control at 1000 g/ha in test [7] stood at 0%; in test [8] it was 0%; in [9] it was 0%; in the test on Setaria faberi (SETFA) [10] it was 0%; with Solanum nigrum (SOLNI) [11] it was 60%; in test [12] it was 0%.

As for `COC(=O)c1nc(C2CC2)nc(NCC(F)c2cccc(C(F)(F)F)c2)c1Cl` (stereo not drawn) [Compound 4-237, 5-Chloro-2-cyclopropyl-4-[2-fluoro-2-(3-trifluoromethyl-phenyl)ethylamino]-6-methoxy-carbonylpyrimidine], the pest or weed control at 1000 g/ha is 100% in test [1]; 30% in [2]; 0% in test [3]; 40% in the test on Setaria faberi (SETFA) [4]; 70% in the test on Solanum nigrum (SOLNI) [5]; 60% in test [6]. For the same molecule, the pest or weed control at 1000 g/ha in [7] was found to be 30%; in test [8] it was 0%; in [9], 0%; in the test with Setaria faberi (SETFA) [10], 0%; in the test on Solanum nigrum (SOLNI) [11], 0%; in test [12], 10%.

With `COC(=O)c1nc(C2CC2)nc(NCC(F)c2ccc(F)cc2F)c1Cl` (stereo not drawn) [Compound 4-238, 5-Chloro-2-cyclopropyl-4-[2-(2,4-difluoro-phenyl)-2-fluoro-ethylamino]-6-methoxycarbonyl-pyrimidine], the pest or weed control at 1000 g/ha in test [1] is 90%; in test [2], 0%; in test [3], 10%; in the test on Setaria faberi (SETFA) [4] it was 0%; in the test with Solanum nigrum (SOLNI) [5] it was 70%; in test [6], 60%. Further, the pest or weed control at 1000 g/ha worked out at 10% in test [7]; 0% in test [8]; 0% in [9]; 0% in the test with Setaria faberi (SETFA) [10]; 50% in the test with Solanum nigrum (SOLNI) [11]; 0% in test [12].

On to `COC(=O)c1nc(C2CC2)nc(NCC(F)c2ccc(Cl)cc2Cl)c1Cl` (stereo not drawn) [Compound 4-239, 5-Chloro-2-cyclopropyl-4-[2-(2,4-dichlorophenyl)-2-fluoro-ethylamino]-6-methoxycarbonyl-pyrimidine], for which the pest or weed control at 1000 g/ha in test [1] came out at 90%; in test [2] it was 0%; in test [3] it was 0%; in the test on Setaria faberi (SETFA) [4] it was 20%; in the test on Solanum nigrum (SOLNI) [5] it was 60%; in test [6], 50%. Further, the pest or weed control at 1000 g/ha was 20% in [7]; 0% in test [8]; 0% in [9]; 0% in the test on Setaria faberi (SETFA) [10]; 0% in the test with Solanum nigrum (SOLNI) [11]; 10% in test [12].
